IC50 data for 19 molecules are collected here from patent US20230219956A1 (BETTA PHARMACEUTICALS CO.,LTD, priority 2019, published 2023).

One assay concerns H358 cells. Nature of the assay: Cell proliferation assay, H358 cells (Cell-titer Glo). The class given is cell-based. The following applies: Homo sapiens, NCI-H358, 96 h incubation. The method, then:
(§1) Pave the H358 cells on a 96-well ultra-low adsorption plate with 2000 cells and 190 μL/well. After incubating overnight, compound solutions of gradient concentration was prepared, and added 10 μL of DMSO solution of the test compound of each concentration to the cells of each well. The final concentration of the compound is 10000, 3333.3, 1111.1, 370.4, 123.5, 41.2, 13.7, 4.6, 1.5, 0 nM (the final concentration of DMSO is 0.25%). Incubated for 96 h at 37° C. and 5% CO2. 50 μL of Cell-titer Glo working solution was added to each well, shaked and mixed, and incubated at room temperature for 10 minutes. The multi-functional microplate reader read the luminescence value, and converted the luminescence value reading into inhibition percentage.
(§2) Inhibition percentage=(maximum value−reading)/(maximum value−minimum value)*100.
(§3) The “maximum value” was the DMSO control, the “minimum value” indicates the cell-free control group.
(§4) Graphpad Prism software was used to perform curve fitting and obtain IC50 value.
Refer to table 3 for the IC50 data of some compounds in the Examples for inhibiting H358 cells.

The next assay concerns MIA-PACA-2 cells. Nature of the assay: Cell proliferation assay, MIA-PACA-2 cells (Cell-titer Glo). The class given is cell-based. The following applies: Homo sapiens, 96 h incubation. Here is the method: as §1, with “the MIA-PACA-2” for “the H358”, “cells into” for “cells on”, “plate at 600 cells, 160” for “plate with 2000 cells and 190”, “added 40” for “added 10”, “10000, 2000, 400, 80, 16, 3.2, 0.64, 0.12, 0.025,” for “10000, 3333.3, 1111.1, 370.4, 123.5, 41.2, 13.7, 4.6, 1.5,”
as §2, §3, §4
Refer to Table 3 for the IC50 data of some compounds in the examples inhibiting MIA-PACA-2 cells.

The IC50 is the concentration that inhibits the measured activity by half. As for `C=CC(=O)N1CC2(CCN(c3nc(C4CCN(C5COC5)CC4)nc4c(OCC(F)(F)F)c(-c5c(C)ccc6[nH]ncc56)c(CC)cc34)CC2)C1` [Example 37], the figures for the concentration for half-maximal inhibition (IC50) in the assay on H358 cells and with MIA-PACA-2 cells were 18.4 nM and 23.4 nM, respectively.

For `C=CC(=O)N1CC2(CCN(c3nc(C4CN(CC(C)(C)O)C4)nc4c(OCC(F)(F)F)c(-c5c(C)ccc6[nH]ncc56)c(CC)cc34)CC2)C1` [Example 38, 1-(7-(6-ethyl-2-(1-(2-hydroxy-2-methylpropyl)azetidin-3-yl)-7-(5-methyl-1H-indazol-4-yl)-8-(2,2,2-trifluoroethoxy)quinazolin-4-yl)-2,7-diazaspiro[3.5]nonan 2-yl) prop-2-en-1-one], the IC50 was found to be 59.3 nM with H358 cells and 74.2 nM in the assay on MIA-PACA-2 cells.

Turning to `C=CC(=O)N1CC2(CCN(c3nc(C4CN(CCC#N)C4)nc4c(OCC(F)(F)F)c(-c5c(C)ccc6[nH]ncc56)c(CC)cc34)CC2)C1` [Example 39, 3-(3-(4-(2-acryloyl-2,7-diazaspiro[3.5]nonan-7-yl)-6-ethyl-7-(5-methyl-1H-indazol-4-yl)-8-(2,2,2-trifluoroethoxy)quinazolin-2-yl)azetidin-1-yl)propionitrile], the concentration for half-maximal inhibition (IC50) in the assay with H358 cells is 97.8 nM; with MIA-PACA-2 cells, 78 nM.

Consider `C=CC(=O)N1CC2(CCN(c3nc(C4CN(C5COC5)C4)nc4c(OCC(F)(F)F)c(-c5c(C)ccc6[nH]ncc56)c(CC)cc34)CC2)C1` [Example 40, 1-(7-(6-ethyl-7-(5-methyl-1H-indazole-4-yl)-2-(1-(oxacyclobutan-3-yl)azacyclobutane-3-yl)-8-(2,2,2-trifluoroethoxy)quinazolin-4-yl) 2,7-diazspiro [3.5]nonan-2-yl) propyl-2-en-1-one], for which the IC50 with H358 cells is 39 nM; in the assay with MIA-PACA-2 cells, 47.7 nM.

Regarding `C=CC(=O)N1CC2(CCN(c3nc(C4CN(C5CCOCC5)C4)nc4c(OCC(F)(F)F)c(-c5c(C)ccc6[nH]ncc56)c(CC)cc34)CC2)C1` [Example 42, 1-(7-(6-ethyl-7-(5-methyl-1H-indazole-4-yl)-2-(1-(tetrahydro-2H-pyran-4-yl)azacyclobutane-3-yl)-8-(2,2,2-trifluoroethoxy)quinazolin-4-yl)-2,7-diazspiro [3.5]nonan-2-yl) propyl-2-en-1-one], the IC50 was 19.6 nM in the assay with H358 cells and 29.6 nM in the assay with MIA-PACA-2 cells.

For `C=CC(=O)N1CC2(CCN(c3nc(C4CN(C5CCC5)C4)nc4c(OCC(F)(F)F)c(-c5c(C)ccc6[nH]ncc56)c(CC)cc34)CC2)C1` [Example 43, 1-(7-(2-(1-cyclobutylazocyclobutane-3-yl)-6-ethyl-7-(5-methyl-1H-indazole-4-yl)-8-(2,2,2-trifluoroethoxy)quinazolin-4-yl)-2,7-diazarospiro [3.5]nonan-2-yl) propyl-2-en-1-one], the half-inhibitory concentration (IC50) in the assay with H358 cells is 315 nM; in the assay on MIA-PACA-2 cells, 378 nM.

`C=CC(=O)N1CC2(CCN(c3nc(C4CN(C5CCCC5)C4)nc4c(OCC(F)(F)F)c(-c5c(C)ccc6[nH]ncc56)c(CC)cc34)CC2)C1` [Example 44, 1-(7-(2-(1-cyclopentyl-azacyclobutane-3-yl)-6-ethyl-7-(5-methyl-1H-indazole-4-yl)-8-(2,2,2-trifluoroethoxy)quinazolin-4-yl)-2,7-diazarospiro [3.5]nonan-2-yl) propyl-2-en-1-one]: the IC50 amounted to 155 nM in the assay on H358 cells and 169 nM with MIA-PACA-2 cells.

With `C=CC(=O)N1CC2(CCN(c3nc(C4CN(C(=O)C5CC5)C4)nc4c(OCC(F)(F)F)c(-c5c(C)ccc6[nH]ncc56)c(CC)cc34)CC2)C1` [Example 45, 1-(7-(2-(1-(Cyclopropanecarbonyl)azacyclobutane-3-yl)-6-ethyl-7-(5-methyl-1H-indazol-4-yl)-8-(2,2,2-trifluoroethoxy)quinazolin-4-yl)-2,7-diazaspo [3.5]nonan-2-yl) propyl-2-en-1-one], the results for the concentration for half-maximal inhibition (IC50) in the assay with H358 cells and in the assay with MIA-PACA-2 cells were 466 nM and 778 nM, respectively.

Regarding `C=CC(=O)N1CC2(CCN(c3nc(C4CN(CC)C4)nc4c(OCC(F)(F)F)c(-c5c(C)ccc6[nH]ncc56)c(CC)cc34)CC2)C1` [Example 46, 1-(7-(6-ethyl-2-(1-ethyl-azacyclobutane-3-yl)-7-(5-methyl-1H-indazole-4-yl)-8-(2,2,2-trifluoroethoxy)quinazolin-4-yl)-2,7-diazarospiro [3.5]nonan-2-yl) propyl-2-en-1-one], the values for the IC50 in the assay with H358 cells and in the assay on MIA-PACA-2 cells were 37 nM and 34 nM, respectively.

As to `C=CC(=O)N1CC2(CCN(c3nc(C4CCN(C)CC4)nc4c(OCC(C)(C)O)c(-c5c(C)ccc6[nH]ncc56)c(C=C)cc34)CC2)C1` [Example 47, 1-(7-(8-(2-hydroxy-2-methylpropoxy)-7-(5-methyl-1H-indazol-4-yl)-2-(1-methylpiperidin-4-yl)-6-vinylquinazoline-4-yl)-2,7-diazaspiro[3.5]nonan-2-yl)prop-2-en-1-one], the IC50 in the assay on H358 cells was 39 nM; in the assay on MIA-PACA-2 cells it was 47.7 nM.

As to `C=CC(=O)N1CC2(CCN(c3nc(C4CCN(C)CC4)nc4c(OCC(F)F)c(-c5c(C)ccc6[nH]ncc56)c(C=C)cc34)CC2)C1` [Example 48, 1-(7-(8-(2,2-difluoroethoxy)-7-(5-methyl-1H-indazol-4-yl)-2-(1-methylpiperidin-4-yl)-6-vinylquinazolin-4-yl)-2,7-diazspiro [3.5]nonan-2-yl) propyl-2-en-1-one], the values for the IC50 with H358 cells and with MIA-PACA-2 cells were 11.5 nM and 9.8 nM, respectively.

Consider `C=CC(=O)N1CC2(CCN(c3nc(C4CCN(C)CC4)nc4c(OCC5(C#N)CC5)c(-c5c(C)ccc6[nH]ncc56)c(C=C)cc34)CC2)C1` [Example 49], for which the IC50 worked out at 11.5 nM in the assay on H358 cells and 9.8 nM in the assay with MIA-PACA-2 cells.

`C=CC(=O)N1CC2(C1)CN(c1nc(C3CCN(C)CC3)nc3c(OCC(F)(F)F)c(-c4c(C)ccc5[nH]ncc45)c(C=C)cc13)C2` [Example 50, 1-(6-(7-(5-methyl-1H-indazol-4-yl)-2-(1-methylpiperidin-4-yl)-8-(2,2,2-trifluoroethoxy)-6-vinylquinazolin-4-yl)-2,6-diazaspiro[3.3]heptane-2-yl)prop-2-en-1-one]: the IC50 came out at 243 nM in the assay with H358 cells and 278 nM in the assay on MIA-PACA-2 cells.

As to `C=CC(=O)N1CCC2(CC1)CN(c1nc(C3CCN(C)CC3)nc3c(OCC(F)(F)F)c(-c4c(C)ccc5[nH]ncc45)c(C=C)cc13)C2` [Example 51, 1-(2-(7-(5-methyl-1H-indazol-4-yl)-2-(1-methylpiperidin-4-yl)-8-(2,2,2-trifluoroethoxy)-6-vinylquinazolin-4-yl)-2,7-diazspiro [3.5]nonan-2-yl) propyl-2-en-1-one], the IC50 was 462 nM with H358 cells and 188 nM in the assay with MIA-PACA-2 cells.

Regarding `C=CC(=O)N1CCN(c2nc(C3CCN(C)CC3)nc3c(OCC(F)(F)F)c(-c4c(C)ccc5[nH]ncc45)c(C=C)cc23)[C@@H](C)C1` [Example 52, 1-((3S)-3-methyl-4-(7-(5-methyl-1H-indazole-4-yl)-2-(1-methylpiperidin-4-yl)-8-(2,2,2-trifluoroethoxy)-6-vinylquinazolin-4-yl)piperazin-1-yl) propyl-2-en-1-one], the results for the half-maximal inhibitory concentration (IC50) in the assay on H358 cells and with MIA-PACA-2 cells were 104 nM and 114 nM, respectively.

Consider `C=CC(=O)N1CC2(CCN(c3nc(C4CCN(C)CC4)nc4c(OCC(F)(F)F)c(-c5c(C)cnc6[nH]ncc56)c(C=C)cc34)CC2)C1` [Example 53, 1-(7-(7-(5-methyl-1H-pyrazolo[3,4-b]pyridin-4-yl)-2-(1-methylpiperidine-4-yl)-8-(2,2,2-trifluoroethoxy)-6-vinylquinazolin-4-yl)-2,7-diazaspiro[3.5]nonan-2-yl)prop-2-en-1-one], for which the half-inhibitory concentration (IC50) in the assay with H358 cells turned out to be 163 nM; with MIA-PACA-2 cells, 105 nM.

Regarding `C=CC(=O)N1CC2(CCN(c3nc(C4CCN(C)CC4)nc4c(OCC(F)(F)F)c(-c5c(C)ncc6[nH]ncc56)c(C=C)cc34)CC2)C1` [Example 56, 1-(7-(7-(5-methyl-1H-pyrazolo [3,4-c]pyridin-4-yl)-2-(1-methylpiperidine-4-yl)-8-(2,2,2-trifluoroethoxy)-6-vinylquinazolin-4-yl)-2,7-diazaspiro[3.5]nonan-2-yl) prop-2-en-1-one], the concentration for half-maximal inhibition (IC50) with H358 cells stood at 2520 nM; with MIA-PACA-2 cells, 2580 nM.

Consider `C=CC(=O)N1CC2(CCN(c3nc(C4CCN(CCS(C)(=O)=O)CC4)nc4c(OCC(F)(F)F)c(-c5c(C)ccc6[nH]ncc56)c(C=C)cc34)CC2)C1` [Example 57, 1-(7-(7-(5-methyl-1H-indazol-4-yl)-2-(1-(2-(methylsulfonyl)ethyl)piperidine-4-yl)-8-(2,2,2-trifluoroethoxy)-6-vinylquinazolin-4-yl)-2,7-diazaspiro[3.5]nonan-2-yl) prop-2-en-1-one], for which the IC50 with H358 cells was 7.3 nM; in the assay on MIA-PACA-2 cells, 6.8 nM.

For the molecule `C=CC(=O)N1CC2(CCN(c3nc(C4CCN(CCC#N)CC4)nc4c(OCC(F)(F)F)c(-c5c(C)ccc6[nH]ncc56)c(C=C)cc34)CC2)C1` [Example 59, 3-(4-(4-(2-acryloyl-2,7-diazazospiro [3.5]nonan-7-yl)-7-(5-methyl-1H-indazole-4-yl)-8-(2,2,2-trifluoroethoxy)-6-vinylquinazolin-2-yl)piperidin-1-yl) propionitrile], the IC50 in the assay on H358 cells is 6.4 nM; in the assay with MIA-PACA-2 cells, 6.9 nM.
